According to patent US11000568B2, “Means and methods for treating copper-related diseases” (HELMHOLTZ ZENTRUM MÜNCHEN—DEUTSCHES FORSCHUNGSZENTRUM FÜR …, priority 2015, dated 2021):
Entries after “also recorded” stand apart in the source; their conditions may differ. Read-outs that look alike come from different tables or passages of the source. Numbered stars: 1 amine (or outer) side, 2 acyl side, 3 side chain; on linkers, the order of the positions; unused ones are H or OH. Bridge positions count the residues as written; N and C are the ends. Square brackets hold non-standard residues; d marks the D form. Peptide text beside a SMILES is read from it. * marks the point of attachment. X2 = O=C1OC(C2CCCN2[*:1])=NC1C(=S)NC(CO)C(=O)[*:2]; X1 = CC(C)CC(=O)C1=NC(C(=S)NCC(=O)*)C(=O)O1

What was measured:
[1] = system: HepG2 cells; assay: Cellular de-coppering of HepG2 cells (ICP-OES); type: cell-based
Procedure: HepG2 cells were kept in MEM with 2% FCS. […] Therefore, Zn-MB, generated by preparing a 20 mM MB solution and adding an equimolar concentration of Zn solution under pH control, was used in cell culture experiments.
To determine the cellular de-coppering efficiency of MB, cells were pretreated with 2% FCS containing medium or 15 μM copper-histidine for 24 h and subsequently subjected to a 24 h treatment with 500 μM MB. Thereafter, cells were washed two times and counted. Copper in 2.5×10^6 cells was determined by ICP-OES after wet ashing of samples with 65% nitric acid.
Copper in liver homogenates, cell lysates and mitochondrial preparations were analyzed by ICP-OES (Ciros Vision, SPECTRO Analytical Instruments GmbH) after wet ashing of samples with 65% nitric acid (Zischka et al., log. cit.).

[2] = system: LPP−/− livers; assay: Two hour LPP−/− liver perfusion; set-up: species or system rat
Procedure: LPP−/− livers (animal age 79-83 days) were perfused in a single pass manner with Krebs-Ringer bicarbonate solution containing 5 mM glucose (Beuers et al., J Biol Chem 278, 17810-17818 (2003)). The medium was gassed with 95% O2/5% CO2 and kept at 37° C. Rat livers were perfused via the portal vein (Beuers et al., log. cit.), the right lateral liver lobe was ligated and its copper content served as pre-perfusion control (Beuers et al., Hepatology 33, 1206-1216 (2001)). After cannulation of the bile duct a 20 min sample of bile was collected before the copper chelators were continuously added to the perfusion medium. Bile and outflow perfusate were collected in 10 min intervals as described elsewhere (Beuers et al., log. cit.). D-PA*HCl (20 mg/108 μmol), TETA*2HCl (20 mg/91 μmol), TTM*2NH4 (10 mg/38 μmol) and MB (40 mg/35 μmol) were each dissolved in 50 ml 0.9% NaCl, and continuously added to the perfusion medium via a perfusion pump (Perfusor, Braun, Melsungen) within 2 hours. The molar ratios of the chelators applied was MB 1:D-PA 3.1:TETA 2.6:TTM 1.1. LDH in the outflow perfusate was measured every ten minutes as described (Beuers et al., log. cit.). Control perfusions were done with Krebs-Ringer bicarbonate solution only.

[3] = system: LPP+/− rats; details: rat, in vivo
Procedure: (§1) LPP rats were treated with MB either by daily i.p. injections for 3 or 5 consecutive days, or twice daily i.p. injections for 8 consecutive days at a dose of 150 mg/kg bw or 4 days via the drinking water with D-PA at a dose of 100 mg/kg bw/d or TETA at 480 mg/kg bw/d, respectively (Togashi et al., Hepatology 15, 82-87 (1992)). Based on a mean copper content of 250 μg/g w.w. in Atp7b−/− rat livers at the age of treatment start (Zischka et al., log. cit.), a LPP−/− rat liver of 8 g w.w. contains around 31.5 μmol copper. Single MB doses were chosen equimolar to this copper amount. […] Assuming 40 ml water intake per day for a rat weighing 250 g this translates to a dose of 480 mg/kg bw/d. With respect to the mean liver copper content in LPP−/− rats aged 85 days, the molar ratios of the chelators applied was MB 1:D-PA 4.3:TETA 17.4, respectively. For the intravenous MB application (150 mg/kg bw), catheters connected to a PinPort™ (Instech Laboratories, Inc., USA) were inserted in the femoral vein of the rat, fixed with non-absorbable sutures and subcutaneously tunneled and exteriorized through a skin incision made between the shoulders.

[4] = MB in serum after i.p. injection; type: in vivo, rat
Procedure: as §1, with “For the intravenous MB application (150 mg/kg bw), catheters connected to a PinPort™ (Instech Laboratories, Inc., USA) were inserted in the femoral vein of the rat, fixed with non-absorbable sutures and subcutaneously tunneled and exteriorized through a skin incision made between the shoulders.” left out
Competitive ELISA. […] After 10 min, the plates were washed, bound antibodies against MB were detected with HRP conjugated mAbs against the rat IgG isotypes and HRP was visualized with TMB. MAbs that recognized free MB (no signal when pre-incubated with MB, positive signal in the buffer control) were further analyzed in a serial dilution of MB (1000 ng/ml to 2 ng/ml). […]

[5] = system: metallothionein; details: in vitro and in vivo experiments; cited from earlier work

Q: Which “de-coppering of copper preloaded HepG2 cells” value ([1]; 24 h MB treated vs untreated control) does the source give for `CSCCC(NC(=O)C1CSSCC(NC(=O)C(CO)NC(=O)CNC(=S)C2N=C(C(=O)CC(C)C)OC2=O)C(=O)NC(Cc2ccc(O)cc2)C(=O)N2CCCC2C2=NC(C(=O)O2)C(=S)NC(CO)C(=O)N1)C(=O)O` (stereo not shown) [MB] (X1-SCY[X2]CM-OH; disulfide 2-5; configuration not given here) here?
A: highly efficiently de-coppered

Q: What about the “reduction of copper in HepG2 cells” value ([1]; basic copper load, 24 h 500 μM MB (Zn-MB used in cell culture)) of the same molecule?
A: 50%

Q: What about the “reduction of copper in HepG2 cells” value ([1]; preloaded with 15 μM copper-histidine 24 h, then 24 h 500 μM MB) of the same molecule?
A: 50%

Q: What about the “copper released into bile” value ([2]; MB 0.7 μM, TTM 0.8 μM, D-PA 2.2 μM, TETA 1.8 μM) of the same molecule?
A: tenfold higher amounts of copper; also recorded: tenfold higher copper amounts into bile

Q: And the “liver copper content after perfusion” value ([2]; vs pre-perfusion/buffer control)?
A: significantly reduced the copper content; also recorded: significantly reduces the liver copper content

Q: And the “body weight, liver copper concentration, serum AST and bilirubin” value [3]?
A: remained within the physiological range

Q: And the signs of toxicity [3]?
A: did not exhibit any signs of toxicity

Q: What about the “time MB detectable in the serum” value [4] of the same molecule?
A: 30 min

Q: And the “time MB detectable in the serum” value ([4]; n=2)?
A: half an hour

Q: What about the “removal of Cu from metallothionein” value [5] of the same molecule?
A: has been shown to remove Cu from metallothionein
